How the values were obtained:
[1] = tested on: Rasgrp1 mRNA; experiment: QPCR of Rasgrp1 in Arid1a^fl/fl organoids after GSK126; assay type: cell-based, mouse; settings: Arid1a^fl/fl cells; GSK126 12.5 μM
[2] = tested on: RASGRP1 protein; experiment: RASGRP1 IF in Arid1a^fl/fl organoids after GSK126; assay type: cell-based, mouse; settings: Arid1a^fl/fl cells treated with GSK126
Method: Organoids were fixed using 4% PFA for 2 hours at room temperature on a shaker followed by a 30-minute incubation on ice to achieve complete removal of EHS. Intact organoids were collected as a pellet after centrifugation at 1400 rpm for 5 min and washed with ddH2O. The pellet was further washed with 0.2% BSA and organoids were mixed with HistoGel™ (Epredia). The organoid and HistoGel™ suspension was centrifuged at 1400 rpm for 5 minutes and kept on ice for 30 minutes. The solidified HistoGel™ structure was stored at 4° C. until ready for processing and paraffin embedding. Organoid sections ([…]) were deparaffinized in CitriSolv™ (Fisher, 4355121) for 10 minutes and rehydrated using 100% (2×), 90% (2×) and 70% (2×) ethanol for 5 minutes each. Antigen retrieval was performed by preheating in sodium citrate buffer (pH 6.0) solution for 10 minutes at 121° C. in a pressure cooker. Organoid sections were blocked in 1% BSA solution for 1 hour followed by overnight incubation in primary antibody (anti-RASGRP1: Fisher) at 4° C. in a humidified chamber. Secondary antibody (Alexa Fluor® 594: Invitrogen) incubation was performed for 1 hour at room temperature. All slides were mounted using ProLong™ gold mounting media with DAPI (Fisher Scientific, P36935). […]

[3] = molecular target: T1, EZH2 (Mus musculus, UniProt Q61188); experiment: H3K27me3 on the Rasgrp1 promoter in Arid1a^fl/fl organoids treated with EZH2 inhibitor; assay type: cell-based; settings: Arid1a^fl/fl organoids treated with GSK126
T1 construct: endogenous in cells; host or cells: Arid1a^fl/fl mouse urothelial organoids
Method: CUT&Tag was performed following the published protocol, with some modifications. Briefly, cells were harvested and prepared into homogenous suspension in PBS, aliquoted with 10% DMSO and slow-frozen to −80° C. in isopropanol freezing chambers. CUT&Tag was performed with native nuclei. Cells were thawed at 37° C. for 1 minute, washed twice with PBS and centrifugation at 600×g for 3 minutes, and resuspended into ice-cold NE1 buffer (20 mM K-HEPES pH 7.9, 10 mM KCl, […], 20% Glycerol, 0.5 mM spermidine, and EDTA-free protease inhibitor). Cells were kept on ice for 10 minutes, centrifuged at 1400×g for 3 minutes using a swinging-bucket rotor, pellets were resuspended in Wash buffer (20 mM Na-HEPES pH 7.5, 150 mM NaCl, 0.5 mM spermidine, and EDTA-free protease inhibitor), nuclei were counted using Vi-CELL© Cell Viability Analyzer (Beckman Coulter) and aliquoted into 0.6 mL low-binding flip-cap tubes for CUT&Tag experiments.
500,000 nuclei were used for each CUT&Tag experiment targeting a histone posttranslational modification, while 200,000 nuclei were used for ARID1A. Bio-Mag®Plus Concanavalin A coated magnetic beads (Bangs Laboratories) were equilibrated with binding buffer (20 mM K-HEPES pH7.9, 10 mM KCl, and 1 mM each CaCl2 and MnCl2). To each sample, 10 μL of activated beads were added and held at room temperature for 5 minutes with occasional gentle mixing. […]

[4] = tested on: eEF2 phosphorylation; experiment: Immunoblot of phospho-eEF2 and total eEF2 in Arid1a^fl/fl organoids +/- GSK126; assay type: cell-based, mouse
Method: Cell lysates were prepared using RIPA buffer (Fisher) containing phosphatase inhibitor (Sigma) and protease inhibitor cocktail (Sigma). The lysates were incubated on ice for 30 minutes with periodic mixing by vortex and centrifuged at 13,000×g at 4° C. for 10 minutes. The supernatants were subjected to SDS-PAGE and transferred to a PDVF membrane (Bio-Rad). Membranes were blocked with 5% milk for 1 hour at room temperature. Primary antibodies were diluted in 5% milk and incubated overnight at 4° C. Blots were incubated with horse radish peroxidase- (HRP-) conjugated secondary antibodies (goat anti-rabbit IgG (Fisher) or goat anti-mouse IgG (Fisher)) in 5% milk for 1 hour at room temperature. West Pico (Fisher) was used to detect immunoreactive bands on the blot using the ChemiDoc Touch Imaging System (Bio-Rad). […]

[5] = tested on: PDX2 (ARID1A medium); experiment: Pre-clinical trial of patient derived xenograft treated with HHT; assay type: in vivo, mouse; settings: ARID1A medium model; HHT 0.7 mg/kg twice daily by oral gavage
Text: (§1) Arid1a^LoxP/LoxP (Jackson Laboratory), ROSA-LSL-Yfp^KI/KI (Jackson Laboratory), and UBC-Cre^ERT2 (Jackson Laboratory). eEF2K^−/− animals were kindly provided by Alexey G. Ryazanov (Rutgers University). UBC-Cre^ERT2;ROSA-LSL-Yfp^KI/KI;Arid1a^LoxP/LoxP animals (mixed background) were bred to Eef2k^−/− animals (C57BL/6) for one generation to produce progeny heterozygous at all loci (ROSA-LSL-Yfp^KI/+;Arid1a^LoxP/+; eEF2K^+/−) with or without UBC-Cre^ERT2. Heterozygous animals without UBC-Cre^ERT2 were backcrossed once more to ROSA-LSL-Yfp^KI/KI;Arid1a^LoxP/LoxP animals to reintroduce homozygosity at the ARID1A and ROSA-LSL-Yfp, while maintaining heterozygosity at the Eef2k locus (ROSA-LSL-Yfp^KI/KI; Arid1a^LoxP/LoxP; Eef2K^+/−; with and without UBC-Cre^ERT2). […] For survival studies, the body weight of the mouse was recorded and monitored every two days for the duration of the survival trial.
(§2) Tumor pieces (1×1×1 mm) were implanted into the flank of 4-6 weeks old NOD-SCID γ IL-2 mice. Xenografts were measured every 2 days and tumor volume was calculated using the formula (L×W×W)/2, where L is the length of the tumor and W its width. […]

[6] = tested on: PDX1 (ARID1A low); experiment: as above; assay type: in vivo, mouse; settings: ARID1A low model; HHT 0.7 mg/kg twice daily by oral gavage
Text: as §1, §2

T1 sequence (Q61188 whole entry): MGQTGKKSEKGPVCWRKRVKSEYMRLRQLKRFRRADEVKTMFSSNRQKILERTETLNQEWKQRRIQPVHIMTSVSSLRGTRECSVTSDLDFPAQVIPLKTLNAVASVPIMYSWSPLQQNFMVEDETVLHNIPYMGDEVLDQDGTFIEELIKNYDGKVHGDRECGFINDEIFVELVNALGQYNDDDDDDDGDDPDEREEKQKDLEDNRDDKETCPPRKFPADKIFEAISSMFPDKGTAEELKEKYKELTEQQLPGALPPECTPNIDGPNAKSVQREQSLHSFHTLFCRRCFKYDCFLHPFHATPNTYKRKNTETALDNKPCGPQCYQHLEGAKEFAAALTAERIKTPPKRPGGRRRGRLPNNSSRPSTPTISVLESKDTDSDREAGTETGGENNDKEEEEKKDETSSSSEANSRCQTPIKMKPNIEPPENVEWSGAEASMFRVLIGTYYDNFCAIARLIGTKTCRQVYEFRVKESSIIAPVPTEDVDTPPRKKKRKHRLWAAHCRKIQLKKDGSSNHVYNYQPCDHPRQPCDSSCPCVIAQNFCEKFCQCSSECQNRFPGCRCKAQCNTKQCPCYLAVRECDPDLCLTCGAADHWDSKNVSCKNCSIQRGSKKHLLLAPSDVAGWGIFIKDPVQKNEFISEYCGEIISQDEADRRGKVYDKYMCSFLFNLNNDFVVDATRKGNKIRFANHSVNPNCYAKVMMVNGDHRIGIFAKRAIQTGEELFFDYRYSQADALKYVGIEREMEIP
T1 sequence (Q921E6 whole entry partner): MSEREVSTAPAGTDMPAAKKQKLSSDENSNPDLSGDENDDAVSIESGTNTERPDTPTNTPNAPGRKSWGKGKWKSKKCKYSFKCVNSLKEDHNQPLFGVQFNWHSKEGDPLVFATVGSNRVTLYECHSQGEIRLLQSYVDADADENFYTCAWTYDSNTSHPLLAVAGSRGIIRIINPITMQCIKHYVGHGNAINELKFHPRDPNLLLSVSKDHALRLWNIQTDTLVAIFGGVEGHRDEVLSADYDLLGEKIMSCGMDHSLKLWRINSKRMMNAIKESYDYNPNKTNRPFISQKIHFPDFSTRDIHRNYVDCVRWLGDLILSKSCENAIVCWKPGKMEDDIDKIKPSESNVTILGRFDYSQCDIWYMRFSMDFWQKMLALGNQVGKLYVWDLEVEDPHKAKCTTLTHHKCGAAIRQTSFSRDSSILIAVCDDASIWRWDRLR
T1 sequence (Q80U70 whole entry partner): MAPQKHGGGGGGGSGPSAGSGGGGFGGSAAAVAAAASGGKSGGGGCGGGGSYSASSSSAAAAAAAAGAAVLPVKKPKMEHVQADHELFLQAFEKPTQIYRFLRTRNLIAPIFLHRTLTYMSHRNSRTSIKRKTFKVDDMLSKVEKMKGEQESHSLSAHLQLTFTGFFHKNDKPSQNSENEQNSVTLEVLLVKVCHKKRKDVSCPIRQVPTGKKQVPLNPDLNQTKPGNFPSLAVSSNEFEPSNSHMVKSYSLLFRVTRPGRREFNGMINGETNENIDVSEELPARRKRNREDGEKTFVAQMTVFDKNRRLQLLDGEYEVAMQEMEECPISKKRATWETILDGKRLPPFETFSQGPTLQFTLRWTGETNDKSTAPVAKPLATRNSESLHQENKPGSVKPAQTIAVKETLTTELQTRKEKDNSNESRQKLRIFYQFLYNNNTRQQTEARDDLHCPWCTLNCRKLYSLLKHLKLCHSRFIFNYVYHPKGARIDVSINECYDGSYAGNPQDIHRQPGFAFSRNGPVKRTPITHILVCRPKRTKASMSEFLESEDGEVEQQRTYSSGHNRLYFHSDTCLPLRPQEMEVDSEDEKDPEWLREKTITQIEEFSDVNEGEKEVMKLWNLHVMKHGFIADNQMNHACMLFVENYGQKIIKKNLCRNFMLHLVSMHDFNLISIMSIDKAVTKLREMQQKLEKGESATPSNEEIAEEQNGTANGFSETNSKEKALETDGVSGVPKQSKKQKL
T1 sequence (Q60972 whole entry partner): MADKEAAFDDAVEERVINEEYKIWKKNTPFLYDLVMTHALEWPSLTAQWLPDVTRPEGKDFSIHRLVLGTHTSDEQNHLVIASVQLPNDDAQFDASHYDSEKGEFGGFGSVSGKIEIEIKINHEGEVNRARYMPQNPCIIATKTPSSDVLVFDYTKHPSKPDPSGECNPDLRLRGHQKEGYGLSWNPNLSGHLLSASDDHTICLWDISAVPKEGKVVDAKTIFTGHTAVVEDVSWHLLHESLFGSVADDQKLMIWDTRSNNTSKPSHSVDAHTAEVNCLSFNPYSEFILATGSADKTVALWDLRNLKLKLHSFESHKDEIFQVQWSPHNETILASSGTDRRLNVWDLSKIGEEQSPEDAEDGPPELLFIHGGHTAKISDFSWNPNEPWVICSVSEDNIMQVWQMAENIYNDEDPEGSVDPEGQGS

SMILES | Rasgrp1 mRNA levels [1] | RASGRP1 protein levels [2] | H3K27me3 on the Rasgrp1 promoter [3] | eEF2 phosphorylation [4] | decrease in tumor growth [5] [%] | decrease in tumor growth [6] [%]
CC[C@H](C)n1cc(C)c2c(C(=O)NCc3c(C)cc(C)[nH]c3=O)cc(-c3ccc(N4CCNCC4)nc3)cc21 [GSK126] | restored | restored | decreased H3K27me3 | decrease in eEF2 phosphorylation | – | –
COC(=O)C[C@](O)(CCCC(C)(C)O)C(=O)O[C@@H]1C(OC)=C[C@]23CCCN2CCc2cc4c(cc2[C@H]13)OCO4 [HHT, homoharringtonine] | – | – | – | – | 35.9 | 59.3

Reference: patent US20240350488A1, “METHODS OF TREATING SWI/SNF DEREGULATED CANCERS” (Fred Hutchinson Cancer Center, priority 2023, published 2024)
